US9580444B2, “Polycyclic pyrazolinone derivative and herbicide comprising same as effective component thereof” (priority 2013, dated 2017)

Tests used:
Assay in all cases: Test Example-1: herbicidal effect by a treatment before weeds are generated under submerged conditions
Type in all cases: in vivo
Conditions in all cases: 500 g a.i/ha, pre-emergence treatment, about 15 days after treatment, score 0-5
[1] = test system: Cyperus difformis (smallflower umbrella plant)
Experimental: (§1) Using the formulation prepared according to the methods described above, the herbicidal effect of the bicyclic pyrazolinone derivative of the invention according to the methods shown in Test Examples below was examined. The herbicidal effect with respect to the test weeds or the phytotoxicity with respect to the test crops was examined according to the following criteria, and evaluated in six stage scores of 0 to 5.
(§2) A plastic cup of 30 cm^2 was filled with paddy soil, soil puddling was performed, seeds of Echinochloa oryzicola (barnyard grass), Cyperus difformis (smallflower umbrella plant), Monochoria vaginalis (monochoria), Scirpus juncoides (bulrush), and Eleocharis acicularis (needle spikerush), and Lindernia procumbens (common false pimpernel), Rotala indica (indian toothcup), Elatine triandra (waterwort) as other annual broad leaf weeds were seeded therein, and kept in a submerged state. A wettable powder or an emulsifiable concentrate of the compound of the present invention prepared according to Formulation Example was diluted on the weed seeding day, and a submersing treatment was performed so as to be a predetermined dosage. The herbicidal effect with respect to the test weeds about 15 days after the treatment was evaluated according to the evaluation criteria in six stages of 0 to 5 described above.

[2] = test system: Echinochloa oryzicola (barnyard grass)
Experimental: as §1, §2

[3] = test system: Eleocharis acicularis (needle spikerush)
Experimental: as §1, §2

[4] = test system: Monochoria vaginalis (monochoria)
Experimental: as §1, §2

[5] = test system: Scirpus juncoides (bulrush)
Experimental: as §1, §2

[6] = test system: other annual broad leaf weeds (Lindernia procumbens, Rotala indica, Elatine triandra)
Experimental: as §1, §2

Structure (SMILES) | Herbicidal effect Cyperus difformis [1] | Herbicidal effect Echinochloa oryzicola [2] | Herbicidal effect Eleocharis acicularis [3] | Herbicidal effect Monochoria vaginalis [4] | Herbicidal effect Scirpus juncoides [5] | Herbicidal effect Broadleaf weed [6]
COc1cccc(Oc2cc(-c3c(Cl)n4n(c3=O)CCCC4)c(F)cc2Cl)c1 [Compound 3-5] | 5 (Herbicidal effect/phytotoxicity was 90% or greater) | 5 (Herbicidal effect/phytotoxicity was 90% or greater) | 5 (Herbicidal effect/phytotoxicity was 90% or greater) | 5 (Herbicidal effect/phytotoxicity was 90% or greater) | 5 (Herbicidal effect/phytotoxicity was 90% or greater) | 5 (Herbicidal effect/phytotoxicity was 90% or greater)
C=CCOC(=O)C=C(COc1ccccc1Oc1cc(-c2c(Cl)n3n(c2=O)CCCC3)c(F)cc1Cl)OCC [Compound 3-25] | 5 (Herbicidal effect/phytotoxicity was 90% or greater) | 5 (Herbicidal effect/phytotoxicity was 90% or greater) | 5 (Herbicidal effect/phytotoxicity was 90% or greater) | 5 (Herbicidal effect/phytotoxicity was 90% or greater) | 5 (Herbicidal effect/phytotoxicity was 90% or greater) | 5 (Herbicidal effect/phytotoxicity was 90% or greater)
C=CC(F)(F)Oc1cc(-c2c(Cl)n3n(c2=O)CCCC3)c(F)cc1Cl [Example 1-206] | 5 (Herbicidal effect/phytotoxicity was 90% or greater) | 5 (Herbicidal effect/phytotoxicity was 90% or greater) | 5 (Herbicidal effect/phytotoxicity was 90% or greater) | 5 (Herbicidal effect/phytotoxicity was 90% or greater) | 5 (Herbicidal effect/phytotoxicity was 90% or greater) | 5 (Herbicidal effect/phytotoxicity was 90% or greater)
C=C(COc1ccccc1Oc1cc(-c2c(Cl)n3n(c2=O)CCCC3)c(F)cc1Cl)c1cccc(Cl)c1 [Compound 3-26] | 5 (Herbicidal effect/phytotoxicity was 90% or greater) | 5 (Herbicidal effect/phytotoxicity was 90% or greater) | 5 (Herbicidal effect/phytotoxicity was 90% or greater) | 5 (Herbicidal effect/phytotoxicity was 90% or greater) | 5 (Herbicidal effect/phytotoxicity was 90% or greater) | 5 (Herbicidal effect/phytotoxicity was 90% or greater)
COCOc1ccc(Oc2cc(-c3c(Cl)n4n(c3=O)CCCC4)c(F)cc2Cl)cc1 [Compound 3-15] | 5 (Herbicidal effect/phytotoxicity was 90% or greater) | 5 (Herbicidal effect/phytotoxicity was 90% or greater) | 5 (Herbicidal effect/phytotoxicity was 90% or greater) | 5 (Herbicidal effect/phytotoxicity was 90% or greater) | 5 (Herbicidal effect/phytotoxicity was 90% or greater) | 5 (Herbicidal effect/phytotoxicity was 90% or greater)
CC(C)Oc1ccc(Oc2cc(-c3c(Cl)n4n(c3=O)CCCC4)c(F)cc2Cl)cc1 [Compound 3-13] | 5 (Herbicidal effect/phytotoxicity was 90% or greater) | 5 (Herbicidal effect/phytotoxicity was 90% or greater) | 5 (Herbicidal effect/phytotoxicity was 90% or greater) | 5 (Herbicidal effect/phytotoxicity was 90% or greater) | 5 (Herbicidal effect/phytotoxicity was 90% or greater) | 5 (Herbicidal effect/phytotoxicity was 90% or greater)
COc1cc(Cl)ccc1Oc1cc(-c2c(Cl)n3n(c2=O)CCCC3)c(F)cc1Cl [Compound 3-37] | 5 (Herbicidal effect/phytotoxicity was 90% or greater) | 5 (Herbicidal effect/phytotoxicity was 90% or greater) | 5 (Herbicidal effect/phytotoxicity was 90% or greater) | 5 (Herbicidal effect/phytotoxicity was 90% or greater) | 5 (Herbicidal effect/phytotoxicity was 90% or greater) | 5 (Herbicidal effect/phytotoxicity was 90% or greater)
O=c1c(-c2cc(Oc3c(F)cc(C(F)(F)F)cc3Cl)c(Cl)cc2F)c(Cl)n2n1CCCC2 [Example 1-254] | 5 (Herbicidal effect/phytotoxicity was 90% or greater) | 5 (Herbicidal effect/phytotoxicity was 90% or greater) | 5 (Herbicidal effect/phytotoxicity was 90% or greater) | 5 (Herbicidal effect/phytotoxicity was 90% or greater) | 5 (Herbicidal effect/phytotoxicity was 90% or greater) | 5 (Herbicidal effect/phytotoxicity was 90% or greater)
COC(=O)C=C(COc1cc(-c2c(Cl)n3n(c2=O)CCCC3)c(Cl)cc1Cl)OC (mixture of isomers) [Compound 2-5] | 5 (Herbicidal effect/phytotoxicity was 90% or greater) | 5 (Herbicidal effect/phytotoxicity was 90% or greater) | 5 (Herbicidal effect/phytotoxicity was 90% or greater) | 5 (Herbicidal effect/phytotoxicity was 90% or greater) | 5 (Herbicidal effect/phytotoxicity was 90% or greater) | 5 (Herbicidal effect/phytotoxicity was 90% or greater)
O=c1c(-c2cc(OC3CCCC3)c(F)cc2F)c(Cl)n2n1CCCC2 [Example 1-98] | 5 (Herbicidal effect/phytotoxicity was 90% or greater) | 5 (Herbicidal effect/phytotoxicity was 90% or greater) | 5 (Herbicidal effect/phytotoxicity was 90% or greater) | 5 (Herbicidal effect/phytotoxicity was 90% or greater) | 5 (Herbicidal effect/phytotoxicity was 90% or greater) | 5 (Herbicidal effect/phytotoxicity was 90% or greater)
CCOC(=O)C=C(COc1cc(-c2c(Cl)n3n(c2=O)CCCC3)c(F)cc1Cl)OCC (mixture of isomers) [Compound 2-19] | 5 (Herbicidal effect/phytotoxicity was 90% or greater) | 5 (Herbicidal effect/phytotoxicity was 90% or greater) | 5 (Herbicidal effect/phytotoxicity was 90% or greater) | 5 (Herbicidal effect/phytotoxicity was 90% or greater) | 5 (Herbicidal effect/phytotoxicity was 90% or greater) | 5 (Herbicidal effect/phytotoxicity was 90% or greater)
O=c1c(-c2cc(Oc3c(F)cc(C(F)(F)F)cc3Cl)c(F)cc2F)c(Cl)n2n1CCCC2 [Example 1-340] | 5 (Herbicidal effect/phytotoxicity was 90% or greater) | 5 (Herbicidal effect/phytotoxicity was 90% or greater) | 5 (Herbicidal effect/phytotoxicity was 90% or greater) | 5 (Herbicidal effect/phytotoxicity was 90% or greater) | 5 (Herbicidal effect/phytotoxicity was 90% or greater) | 5 (Herbicidal effect/phytotoxicity was 90% or greater)
CCOC(=CC(=O)OC)COc1cc(-c2c(Cl)n3n(c2=O)CCCC3)c(F)cc1Cl (mixture of isomers) [Compound 2-12] | 5 (Herbicidal effect/phytotoxicity was 90% or greater) | 5 (Herbicidal effect/phytotoxicity was 90% or greater) | 5 (Herbicidal effect/phytotoxicity was 90% or greater) | 5 (Herbicidal effect/phytotoxicity was 90% or greater) | 5 (Herbicidal effect/phytotoxicity was 90% or greater) | 5 (Herbicidal effect/phytotoxicity was 90% or greater)
C=CCOC(=O)C=C(COc1cc(-c2c(Cl)n3n(c2=O)CCCC3)c(F)cc1Cl)OCC (mixture of isomers) [Compound 2-11] | 5 (Herbicidal effect/phytotoxicity was 90% or greater) | 5 (Herbicidal effect/phytotoxicity was 90% or greater) | 5 (Herbicidal effect/phytotoxicity was 90% or greater) | 5 (Herbicidal effect/phytotoxicity was 90% or greater) | 5 (Herbicidal effect/phytotoxicity was 90% or greater) | 5 (Herbicidal effect/phytotoxicity was 90% or greater)
O=c1c(-c2cc(OC(F)F)c(Cl)cc2F)c(Cl)n2n1CCCC2 [Example 1-143] | 5 (Herbicidal effect/phytotoxicity was 90% or greater) | 5 (Herbicidal effect/phytotoxicity was 90% or greater) | 5 (Herbicidal effect/phytotoxicity was 90% or greater) | 5 (Herbicidal effect/phytotoxicity was 90% or greater) | 5 (Herbicidal effect/phytotoxicity was 90% or greater) | 5 (Herbicidal effect/phytotoxicity was 90% or greater)
